Experimental data taken from the supplement of paper PMC10307832.

Tests used:
Test in all cases: relative viability (nuclei count vs DMSO), 5 days (fraction); higher = more cells survive
[1] = compound: C1CNCCC1C2=CC(=NN2)C3=CC=NC=C3 + COc1cc2c(Oc3ccc(NC(=O)C4(C(=O)Nc5ccc(F)cc5)CC4)cc3F)ccnc2cc1OCCCN1CCOCC1 [Foretinib] (partner 0.25 µM)
Method in brief: (§1)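 Relative viability divides the nuclei count in treated wells by that in vehicle wells. Lung cancer cell lines were seeded in 1536-well plates, dosed by pin tool the next day, and fixed and stained after 5 days in one step with final 0.05% Triton X-100, 1% formaldehyde and 1 ug/ml Hoechst. Dosing was a single drug or a fixed anchor-drug dose plus five library-drug doses (not always all listed) in √10 steps, and values are medians of duplicate plates imaged at 4×.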

Tanzisertib + Foretinib = compound: O[C@H]1CC[C@H](Nc2ncc3nc(Nc4c(F)cc(F)cc4F)n([C@H]4CCOC4)c3n2)CC1 [Tanzisertib] + COc1cc2c(Oc3ccc(NC(=O)C4(C(=O)Nc5ccc(F)cc5)CC4)cc3F)ccnc2cc1OCCCN1CCOCC1 [Foretinib] (partner 0.25 µM)
Method in brief: as §1

[2] = compound: C1CNCCC1C2=CC(=NN2)C3=CC=NC=C3 + CC(=O)Nc1cccc(-n2c(=O)n(C3CC3)c(=O)c3c(Nc4ccc(I)cc4F)n(C)c(=O)c(C)c32)c1 [Trametinib] (partner 0.02 µM)
Method in brief: as §1

[3] = compound: C1CNCCC1C2=CC(=NN2)C3=CC=NC=C3 + Cc1cc(Nc2cc(N3CCN(C)CC3)nc(Sc3ccc(NC(=O)C4CC4)cc3)n2)n[nH]1 [Tozasertib] (partner 0.1 µM)
Method in brief: as §1

| Cell Line | relative viability ([1]; first compound 0.08 µM) | relative viability ([1]; first compound 0.8 µM) | relative viability ([1]; first compound 2.53 µM) | relative viability ([1]; first compound 8 µM) | relative viability (Tanzisertib + Foretinib; first compound 0.08 µM) | relative viability (Tanzisertib + Foretinib; first compound 0.253 µM) | relative viability (Tanzisertib + Foretinib; first compound 0.8 µM) | relative viability (Tanzisertib + Foretinib; first compound 2.53 µM) | relative viability (Tanzisertib + Foretinib; first compound 8 µM) | relative viability ([2]; first compound 0.08 µM) | relative viability ([2]; first compound 0.8 µM) | relative viability ([2]; first compound 2.53 µM) | relative viability ([2]; first compound 8 µM) | relative viability ([3]; first compound 0.08 µM) | relative viability ([3]; first compound 0.8 µM) | relative viability ([3]; first compound 2.53 µM) | relative viability ([3]; first compound 8 µM) |
| --- | --- | --- | --- | --- | --- | --- | --- | --- | --- | --- | --- | --- | --- | --- | --- | --- | --- |
| NCI-H2170 | 0.897 | 0.974 | 1 | 1.01 | 1.02 | 1.01 | 0.954 | 1.06 | 0.984 | 0.763 | 0.925 | 0.915 | 0.907 | 0.667 | 0.621 | 0.775 | 0.681 |
| HCC-366 | 0.95 | 0.946 | 0.905 | 1.03 | 0.917 | 0.918 | 0.922 | 0.975 | 0.917 | 0.292 | 0.428 | 0.393 | 0.337 | 0.214 | 0.137 | 0.182 | 0.123 |
| NCI-H2347 | 1.21 | 0.742 | 0.805 | 1.25 | 1.12 | 0.792 | 0.95 | 1.25 | 0.629 | 0.264 | 0.266 | 0.326 | 0.262 | 0.766 | 0.599 | 0.557 | 0.571 |
| COR-L 105 | 1.22 | 1.07 | 1.13 | 1.67 | 0.99 | 1.03 | 1.32 | 1.27 | 0.719 | 0.42 | 0.501 | 0.427 | 0.47 | 0.348 | 0.311 | 0.348 | 0.349 |
| 201T | 1.08 | 1.21 | 1.3 | 1.03 | 1.2 | 1.08 | 1.12 | 1.11 | 0.978 | 0.712 | 0.731 | 0.753 | 0.675 | 0.944 | 0.944 | 0.893 | 0.951 |
| NCI-H2126 | 1.18 | 1.31 | 1.23 | 1.29 | 1.24 | 1.21 | 1.15 | 1.19 | 1.12 | 0.582 | 0.564 | 0.543 | 0.564 | 0.674 | 0.974 | 0.916 | 0.858 |
| LC-2-ad | – | 0.956 | 0.997 | 0.948 | 0.924 | 0.913 | 0.908 | 0.877 | 0.884 | 0.887 | 1.02 | 0.93 | 0.932 | – | 0.445 | 0.485 | 0.467 |
| NCI-H2085 | 1.02 | 0.698 | 0.916 | 0.901 | 0.893 | 1.11 | 1.14 | 1.03 | 1.05 | 0.623 | – | 0.52 | 0.71 | 0.934 | – | 0.847 | 0.832 |
| NCI-H358 | 0.551 | 0.672 | 0.727 | 0.69 | 0.774 | 0.589 | 0.694 | 0.73 | 0.442 | 0.12 | 0.128 | 0.136 | 0.169 | 0.106 | 0.101 | 0.106 | 0.0938 |
| H3255 | 0.861 | 0.983 | 1.03 | 0.9 | 0.729 | 0.77 | 0.831 | 0.841 | 0.696 | 0.532 | – | 0.689 | 0.736 | 0.709 | 0.795 | 0.806 | 0.606 |
